# Experimental data: a melting point compilation (Tetko et al.; mined from patent text by program, amines drawn as free bases though some values may be those of a salt)
row,SMILES,melting point
1,C[C@H](CCC[C@@H](C)[C@H]1C(=O)C[C@H]2[C@@H]3CC=C4C[C@@H](O)CC[C@]4(C)[C@H]3CC[C@]12C)CN1C(=O)c2ccccc2C1=O,55 °C
2,CCCCCCCCCCCCCCCCCCOc1cc(N(CC(=O)O)CC(=O)O)cc([N+](=O)[O-])c1,131 to 134 °C
3,Cc1cccc2c1nc(-c1ccccc1F)n2CC(O)C(C)(C)C (stereo not given),178 to 179 °C
4,CN(O)C(=O)NCCCCCCCOCc1ccccc1,69 to 70.5 °C
5,CS(=O)(=O)Nc1c(Br)cnn1-c1ccc(C(F)(F)F)cc1Cl,63 to 65 °C
6,CC(C)Oc1cc(CCC(=O)O)n(Cc2ccc(Cl)cc2Cl)n1,114 to 115 °C
7,Cc1cccc(-n2nnc3cccnc32)n1,144 to 145 °C
8,CCOC(=O)Cc1ccc(-c2nc(CCl)c(C)o2)cc1,87 to 88 °C
9,O=C(O)CCCc1cc2nc(Cl)ccc2n1S(=O)(=O)c1cccc(C(F)(F)F)c1,188 °C
10,C=CCN(CC=C)c1ccc2[nH]c3cnc(C(=O)OCC)nc3c2c1,188 to 190 °C
11,COc1ccc(-c2c(Cl)c(CN3C(=O)CCC3=O)nc3sc4c(c23)CC(C)(C)C(O)C4)cc1 (stereo not given),227 to 229 °C
12,COC(=O)C1=C(C)NC(C)=C(C(=O)OCC(C)(C)CN(C)C)C1c1cccc([N+](=O)[O-])c1Cl (stereo not given),167 to 169 °C
13,CC(C=Cc1ccccc1-c1cc2c(cc1C)C(C)(C)CCC2(C)C)=CC(=O)O,181 to 182 °C
14,CS(=O)(=O)Nc1cccc(Nc2nc(Oc3ccc(F)cc3)c3nc[nH]c3n2)c1,136 to 139 °C
15,Nc1ncnc2c1c(-c1ccccc1Oc1ccccc1)cn2C1CCCC1,109 to 110 °C
16,Cc1c(C)c2c(c(C)c1NCc1ccccc1)C(=O)C(C)(C)O2,98 to 99 °C
17,Nc1ncc(Oc2ccc(Cl)cc2)c(N2CCOCC2)n1,138 to 140 °C
18,O=C1Cc2cccc(S(=O)(=O)c3ccc(Cl)cc3)c2N1,218 to 221 °C
19,CC(C)(C)OC(=O)/C(=C/c1ccccc1)C(=O)c1ccccc1O,109 to 110 °C
20,CC=CCN(Cc1cc(C)ccc1C)c1ncnc2c1ncn2C1OC(CO)C(O)C1O (stereo not given),125 to 127 °C
21,CC(=O)NCC1CN(c2cccc(Cl)n2)C1,136 to 138 °C
22,CC(C)(N)CNc1ccnc2cc(Cl)ccc12,169 to 171 °C
23,Cn1cc(S(C)(=O)=O)c(=O)c2ccc(C(F)(F)F)cc21,300 to 301 °C
24,Oc1cccc(C2CCCN(CCc3c[nH]c4ccccc34)C2)c1 (stereo not given),130 to 135 °C
25,O=C(O)c1cc(-c2ccccc2)cc2c(-c3ccccc3)c(Br)oc12,232 to 236 °C

row,SMILES,melting point
1,NC1CCC(CC2CCC(Nc3ncc4ncnc(Nc5ccc(F)c(Cl)c5)c4n3)CC2)CC1 (stereo not given),164 to 166 °C
2,COc1cc(I)c(C(C)=NOCc2ccc([N+](=O)[O-])cc2)cc1O,121 to 127 °C
3,O=S1(=O)N=CN(C2CC2)c2ccc(Br)cc21,242 to 244 °C
4,C[C@H](C(=O)N[C@H](CO)Cc1ccccc1)c1ccc(NS(C)(=O)=O)c(F)c1,150 to 153 °C
5,COc1ccc(C2CNC(=O)N2C)cc1OC1CC2CCC1C2 (stereo not given),142 to 144 °C
6,O=S(=O)(Cl)c1cc(S(=O)(=O)Cl)c2c(Cl)ccc(S(=O)(=O)Cl)c2c1,165 to 166 °C
7,Cn1c(=O)c(C#N)c(Cl)c2cc(Cl)ccc21,256 °C
8,CC[C@H]1CC[C@H](CCc2ccc(-c3ccc(C#N)cc3)c(F)c2)CC1,65.4 °C
9,O=C(Nc1ccc(C(=O)N2Cc3ccccc3Sc3ccccc32)cc1)c1ccccc1Cl,116 to 119 °C
10,CNC(=O)c1cccc(NC(=O)CC2CCCCC2)c1,183 °C
11,N#CCCn1cccc1-c1ccc2cnc(Nc3cccc(N4CCCC4=O)c3)nn12,60 to 67 °C
12,CCCc1c(COc2ccc(Cc3nnn(CCCC(=O)O)n3)cc2)ccc(C(C)=O)c1O,92 to 94 °C
13,CCOCC1CN2CCC1CC2 (stereo not given),73 to 77 °C
14,COc1ccc(C(=O)Nc2ccccc2)cc1NCc1ccccc1C,167 to 169 °C
15,CC(=O)Nc1ncc(CCc2ccc(N)cc2)s1,218 to 220 °C
16,COc1cn(-c2ccc(N3CCC(F)(F)CC3)cc2F)nc(-c2ccnn2-c2ccccc2)c1=O,192 to 194 °C
17,COC(=O)N1CCC(=NO)c2cc(Cl)ccc21,162 to 163 °C
18,Nc1cc(-c2ccco2)ccc1Nc1cccc(-n2cccc2)c1,163 to 164 °C
19,Cc1nnc2n1-c1ccc(Cl)cc1C(N1CCOCC1)=NC2,243 to 253 °C
20,COC(=S)Nc1ccc(OCc2nc3ccccc3s2)cc1,160 to 162 °C
21,COC12CC(CCOC(=O)c3cncc(Br)c3)CN(C)C1Cc1cn(C)c3cccc2c13 (stereo not given),187 to 190 °C
22,CCOC(=O)C1=C(CCCc2ccccc2)NC(C)=C(C(=O)OC)C1c1cccc([N+](=O)[O-])c1 (stereo not given),125 to 127 °C
23,COC(=O)CCc1nc(CCc2ccc(CC(=O)OC)cc2)ccc1O,90 to 91 °C
24,CC=CCn1c(Nc2cc(C)cc(C)c2)c(C(C)C)c(=O)[nH]c1=O,186 to 187 °C
25,N#Cc1ccc2c(c1)C(=O)OC2,195 to 196 °C
